Results: patent publication US6335339B1, “Triazine antiviral compounds” (Scriptgen Pharmaceuticals, Inc., priority 1998, dated 2002)
“Also recorded” adds a separate entry of the source.

Tests used:
εRNA = assay: RNase protection of end-labeled εRNA (B. Cereus RNase); assay type: binding, Hepatitis B virus; settings: compound 0 to 200 μM, 25° C., 30 minutes
Procedure: RNase protection was assessed by incubating an end-labeled RNA with the amount of RNase needed to yield a ladder representing single cut events at each possible cleavage site in the RNA structure (based upon a gel electrophoresis analysis). The presence of a ligand bound to the RNA renders the binding site inaccessible to the RNases and therefore, the binding site will be shown by the disappearance or weakening of specific bands in the digestion pattern (FIGS. 258A and 258B).
Reaction mixtures (10 μl) containing 50 mM Tris-HCl, pH 7.5, 50 mM KCl, 0.5 mg/ml rRNA (as a carrier), 0.5 pmol of 3′-end ^32P-labeled εRNA, 0.05 units of B. Cereus RNase, and compound 5 at concentrations between 0 and 200 μM were incubated at 25° C. for 30 minutes. The reaction products were resolved by gel electrophoresis in polyacrylamide gels. B. Cereus nuclease is a single strand specific RNase. The results are shown in FIG. 258A, wherein the sections of the ladder of digestion products corresponding to cleavage events occurring in the bulge and loop sections of the εRNA structure. […] Conversely, the loop and other regions of the structure where not affected.

[1] = neutral red dye uptake cytotoxicity; assay type: cell-based; settings: human, 2.2.15 cells (confluent cultures), 9 days treatment, read-out: 50% Cell Death CC50
Procedure: Further, the antiviral effect of any compound must be measured against its toxicity. Cytotoxicity is measured by the neutral red uptake method using the same cells used for antiviral activity.
2b. Compounds were prepared for toxicity treatment as follows: For each compound, a total of 4 concentrations were examined. This required 9 sets of 4 sterile, 1.1 ml minitubes (36 tubes per compound). Into the first tube of each set, sufficient compound was aliquoted to make up 465 μl of the highest test concentration. The other tubes were left empty. The tubes were covered with the rack lids, and stored at −20° C. or at an appropriate temperature. Tubes for the last day of treatment for toxicity testing contain the same amount of compound as used the previous days (not 3xas for the antiviral assays).
3b. The cytotoxicity of test compounds was analyzed in a 3.3-fold dilution series as follows. […] (155 μl×3) of RP2 were added to the first tube (containing the aliquot of compound) and 310 μL (155 μl×2) RP2 to each of the 3 remaining tubes. 150 μl of test compound-containing medium were serially transferred from the first tube to the other 3 tubes.
5. A single plate was used for the toxicity treatments for each test compound (up to 7 compounds per plates since the top row were reserved for untreated cells on every toxicity plate). To initiate the treatments, the culture medium was removed, and 100 μl of each dilution of every compound were added to each of 3 wells using a configuration similar to that shown above for the antiviral treatments. The untreated cells received 100 μl RP2 per well. Treatment was repeated daily for 9 days.
The antiviral effect of any compound was evaluated relative to its toxicity. Cells were seeded and treated following the guidelines above, after which a neutral red dye uptake assay was performed to assess toxicity as described below. Other assays of cytotoxicity (e.g., MTT) can be substituted for the procedure described below. Note that this procedure assesses toxicity under culture and treatment conditions which are identical to those used for the antiviral analyses, thereby permitting a determination as to whether the reduction in virus production due to a specific antiviral effect or due to a cytotoxic effect on the host cell. Since the cultures, by necessity, are at confluence, the cytotoxic effects of the test compounds will probably be reduced relative to the cytotoxic effects that would be expected for actively dividing cells.
1. Cultures were treated with test compounds on the designated toxicity plates as described above.
2. The culture medium was carefully removed 24 hours following the 9th day of treatment. The monolayer was fully removed in the top left three wells (row A, col. 1-3). These wells were used as “blanks” for the plate reader.
3. 100 μl DPBS (containing 0.01% neutral red dye) were added to each well, including the empty wells, and Incubated in the tissue culture incubator for 30 minutes.
4. The dye was removed carefully and gently, using a multichannel pipetman since the monolayers can become fragile after incubation with neutral red dye. 200 μl DPBS were added to all the wells taking care not to displace the monolayers. The DPBS was removed and 100 μl 50% EtOH/1% glacial acetic acid (in H2O) were added to each well. The plates were mixed for 15 minutes on an orbital platform shaker (120-150 RPM) to allow for full extraction of the dye from the cells.
5. Optical absorbance at 510 nm was read in an ELISA type plate reader, using the 3 empty wells to set the background. An average absorbance value was calculated for the 9 untreated cultures on a plate, and the absorbance of dye for the treated cultures on the same plate was expressed as a percentage of that value. This procedure was repeated for each individual plate. […]

SMILES | protection of εRNA from RNase cleavage (εRNA) | CC50 at 9 days [1] [µM]
CCCCN(CCCC)c1nc(NN=Cc2ccc([N+](=O)[O-])cc2)nc(Nc2ccc([N+](=O)[O-])cc2)n1 [Compound 5] | protects specific positions of RNA from digestion with RNases; also recorded: decrease in cleavage at specific positions of the bulge | –
CCN(CC)c1nc(NCc2ccccc2)nc(N/N=C/c2ccccc2O)n1 [Compound 155, 2-hydroxybenzaldehyde N-[4-(benzylamino)-6-(diethylamino)-1,3,5-triazin-2-yl]hydrazone] | – | 59
